Experiment [1] deals with OCI-LY19. The experiment can be described thus: Growth inhibition of human OCI-LY19 cells at 42 nM incubated for 3 days by Alamar blue dye based fluorescence assay (reference value: 3%). The following applies: OCI-LY19, 72 h, read-out: GI. In kind it is functional.
The test system of experiment [2] is OCI-Ly10. Description: Growth inhibition of human OCI-LY10 cells at 42 nM incubated for 3 days by Alamar blue dye based fluorescence assay (reference value: 3%). In kind it is functional. The following applies: OCI-Ly10, 72 h, read-out: GI.
In experiment [3] the test system is OCI-Ly10. The experiment can be described thus: Growth inhibition of human OCI-LY10 cells at 4.2 nM incubated for 3 days by Alamar blue dye based fluorescence assay (reference value: 3%). Type of experiment: functional. The following applies: OCI-Ly10, 72 h, read-out: GI.
The subject of experiment [4] is OCI-Ly10. The experiment can be described thus: Growth inhibition of human OCI-LY10 cells at 10 nM incubated for 3 days by Alamar blue dye based fluorescence assay (reference value: 3%). In kind it is functional. The following applies: OCI-Ly10, 72 h, read-out: GI.
The test system of experiment [5] is OCI-LY19. Description: Growth inhibition of human OCI-LY19 cells at 0.3 nM incubated for 3 days by Alamar blue dye based fluorescence assay (reference value: 3%). In kind it is functional. The note with it: OCI-LY19, 72 h, read-out: GI. A general note: Alamar Blue is a resazurin reagent that responds to reducing activity.
Experiment [6] concerns OCI-LY19. Description: Growth inhibition of human OCI-LY19 cells at 4.2 nM incubated for 3 days by Alamar blue dye based fluorescence assay (reference value: 3%). Type of experiment: functional. The following applies: OCI-LY19, 72 h, read-out: GI.
The test system of experiment [7] is OCI-LY19. Description: Growth inhibition of human OCI-LY19 cells at 10 nM incubated for 3 days by Alamar blue dye based fluorescence assay (reference value: 3%). Type of experiment: functional. The note with it: OCI-LY19, 72 h, read-out: GI.
The test system of experiment [8] is OCI-LY19. Description: Growth inhibition of human OCI-LY19 cells at 2.1 nM incubated for 3 days by Alamar blue dye based fluorescence assay (reference value: 3%). The following applies: OCI-LY19, 72 h, read-out: GI. In kind it is functional.
Experiment [9] has as its system OCI-Ly10. Description: Growth inhibition of human OCI-LY10 cells at 2.1 nM incubated for 3 days by Alamar blue dye based fluorescence assay (reference value: 3%). Type of experiment: functional. The note with it: OCI-Ly10, 72 h, read-out: GI.
In experiment [10] the test system is OCI-Ly10. Description: Antitumor activity against human OCI-LY10 cells xenografted in CB.17 SCID mouse assessed as induction of tumor stasis at 12 mg/kg, po QD dosed 34 days after tumor cell inoculation. In kind it is functional, organism-based. (In general: Xenograft models place foreign cells or tissue in a host animal.)
In experiment [11] the test system is OCI-Ly10. The experiment can be described thus: Growth inhibition of human OCI-LY10 cells at 0.3 nM incubated for 3 days by Alamar blue dye based fluorescence assay (reference value: 3%). Type of experiment: functional. The note with it: OCI-Ly10, 72 h, read-out: GI.

Calls of active or inactive are those of the source. The rule behind the calls is not given here.

With `C=CC(=O)N1CCC[C@@H](n2nc(-c3ccc(Oc4ccccc4)cc3)c3c(N)ncnc32)C1` [IBRUTINIB], the inhibition of growth at 0.042 µM stood at 11% with OCI-LY19 [1] and 93% with OCI-Ly10 [2]. Moreover, the inhibition of growth at 0.0042 µM is 60% in the experiment with OCI-Ly10 [3] and 6% with OCI-LY19 [6]. Besides, the figures for the inhibition of growth at 0.01 µM with OCI-Ly10 [4] and with OCI-LY19 [7] were 83% and 7%, respectively. Besides, the results for the inhibition of growth at 0.0003 µM in the experiment with OCI-LY19 [5] and in the experiment with OCI-Ly10 [11] were 3% and 5%, respectively. Also, the inhibition of growth at 0.0021 µM is 7% in the experiment on OCI-LY19 [8] and 36% with OCI-Ly10 [9]. Besides, the outcome in the experiment on OCI-Ly10 [10] was Active.

Source of the values: ChEMBL document CHEMBL4321825, “Discovery of a Series of 5-Azaquinazolines as Orally Efficacious IRAK4 Inhibitors Targeting MyD88L265P Mutant Diffuse Large B Cell Lymphoma” (J Med Chem, 2019).
